Reference: ChEMBL document CHEMBL1152755, “Synthesis and cytotoxic properties of 4,11-bis[(aminoethyl)amino]anthra[2,3-b]thiophene-5,10-diones, novel analogues of antitumor anthracene-9,10-diones” (2009)
Active and inactive are the calls of the source. The rule behind the calls is not given here.

Key:
[1] = target: Telomerase reverse transcriptase (Homo sapiens) (UniProt O14746); experiment: Inhibition of telomerase at 1 uM by TRAP assay
HCT-116 = experiment: Resistance index, ratio IC50 for HCT116 cells to IC50 for p53 deleted human HCT116 cells; type: functional
K562 = experiment: Resistance index, ratio IC50 for human K562 cells to IC50 for P-gp positive human K562 cells; type: functional
[2] = target: T1, DNA topoisomerase 1 (Homo sapiens) (UniProt P11387); experiment: Inhibition of topoisomerase 1-mediate pHot DNA relaxation measured by electrophoretic mobility
T1 sequence (whole entry): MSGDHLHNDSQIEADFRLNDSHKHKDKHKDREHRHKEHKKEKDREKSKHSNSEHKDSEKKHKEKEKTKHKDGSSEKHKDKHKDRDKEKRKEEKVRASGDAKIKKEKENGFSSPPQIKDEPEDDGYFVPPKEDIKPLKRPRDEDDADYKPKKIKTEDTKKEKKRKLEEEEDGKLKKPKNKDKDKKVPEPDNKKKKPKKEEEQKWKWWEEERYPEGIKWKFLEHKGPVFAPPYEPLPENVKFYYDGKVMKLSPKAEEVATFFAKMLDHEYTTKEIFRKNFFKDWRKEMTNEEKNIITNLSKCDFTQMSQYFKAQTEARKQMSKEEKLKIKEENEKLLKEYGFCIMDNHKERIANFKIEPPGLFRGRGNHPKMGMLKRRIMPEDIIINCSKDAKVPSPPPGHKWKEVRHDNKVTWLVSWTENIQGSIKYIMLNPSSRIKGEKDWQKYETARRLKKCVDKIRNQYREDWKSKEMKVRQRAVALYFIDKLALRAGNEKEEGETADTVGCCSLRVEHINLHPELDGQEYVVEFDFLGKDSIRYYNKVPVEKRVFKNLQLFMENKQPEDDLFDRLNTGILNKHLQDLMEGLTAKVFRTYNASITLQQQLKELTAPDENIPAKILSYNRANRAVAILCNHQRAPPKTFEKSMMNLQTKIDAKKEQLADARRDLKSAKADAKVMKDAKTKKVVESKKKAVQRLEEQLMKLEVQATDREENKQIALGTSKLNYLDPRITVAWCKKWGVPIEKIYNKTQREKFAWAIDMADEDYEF

Sequence of Telomerase reverse transcriptase (Homo sapiens) (O14746 whole entry): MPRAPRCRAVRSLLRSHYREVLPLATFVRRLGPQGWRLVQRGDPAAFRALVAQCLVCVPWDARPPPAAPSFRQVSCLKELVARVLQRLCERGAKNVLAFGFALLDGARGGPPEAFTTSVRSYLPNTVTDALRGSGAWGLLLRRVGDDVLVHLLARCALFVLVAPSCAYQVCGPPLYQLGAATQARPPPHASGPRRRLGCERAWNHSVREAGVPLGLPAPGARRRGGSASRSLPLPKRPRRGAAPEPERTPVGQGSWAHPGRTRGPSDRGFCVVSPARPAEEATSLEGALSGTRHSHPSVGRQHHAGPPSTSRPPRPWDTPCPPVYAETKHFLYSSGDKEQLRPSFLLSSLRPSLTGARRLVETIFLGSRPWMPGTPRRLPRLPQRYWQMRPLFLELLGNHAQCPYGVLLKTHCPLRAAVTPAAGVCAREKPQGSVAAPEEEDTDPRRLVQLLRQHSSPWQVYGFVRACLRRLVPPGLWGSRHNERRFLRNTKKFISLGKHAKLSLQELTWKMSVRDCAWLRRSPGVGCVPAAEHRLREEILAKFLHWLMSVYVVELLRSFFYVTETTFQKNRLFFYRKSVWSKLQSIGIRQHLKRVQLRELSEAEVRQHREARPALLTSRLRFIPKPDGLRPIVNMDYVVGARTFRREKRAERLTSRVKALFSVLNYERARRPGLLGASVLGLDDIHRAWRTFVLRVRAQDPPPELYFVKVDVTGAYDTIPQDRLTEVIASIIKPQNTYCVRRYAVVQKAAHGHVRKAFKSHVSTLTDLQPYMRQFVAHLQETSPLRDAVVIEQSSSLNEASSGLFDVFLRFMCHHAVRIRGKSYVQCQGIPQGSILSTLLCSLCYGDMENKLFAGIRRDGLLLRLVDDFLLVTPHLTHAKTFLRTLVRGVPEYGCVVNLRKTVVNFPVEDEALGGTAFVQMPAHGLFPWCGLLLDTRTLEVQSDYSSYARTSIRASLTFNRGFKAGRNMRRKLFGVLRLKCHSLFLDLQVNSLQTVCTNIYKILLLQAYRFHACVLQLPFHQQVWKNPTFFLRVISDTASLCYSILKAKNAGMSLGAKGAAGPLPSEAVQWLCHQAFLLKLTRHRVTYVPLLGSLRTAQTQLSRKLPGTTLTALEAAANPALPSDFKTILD

Structure (SMILES) | Activity [1] | Ratio IC50 (HCT-116) | Ratio IC50 (K562) | Activity [2]
CN(CCNc1c2c(c(NCCN(C)C(=N)N)c3sccc13)C(=O)c1ccccc1C2=O)C(=N)N | Active | >24 |  | 
COc1cccc2c1C(=O)c1c(O)c3c(c(O)c1C2=O)C[C@@](O)(C(=O)CO)C[C@@H]3O[C@H]1C[C@H](N)[C@H](O)[C@H](C)O1 [DOXORUBICIN] |  |  | 51 | 
CNC(=O)c1cc2c(NCCN(C)C)c3c(c(NCCN(C)C)c2s1)C(=O)c1ccccc1C3=O |  | 4.2 | 1.1 | 
O=C1c2ccccc2C(=O)c2c1c(NCCNCCO)c1ccsc1c2NCCNCCO |  |  | >12 | 
Cc1csc2c(NCCN)c3c(c(NCCN)c12)C(=O)c1ccccc1C3=O |  | >83 | 5 | 
CNCCNc1c2c(c(NCCNC)c3sc(C(=O)NC)cc13)C(=O)c1ccccc1C2=O |  |  | >11 | 
CC(=O)OCCNCCNc1c2c(c(NCCNCCOC(C)=O)c3sccc13)C(=O)c1ccccc1C2=O |  |  | >18 | 
N=C(N)NCCNc1c2c(c(NCCNC(=N)N)c3sccc13)C(=O)c1ccccc1C2=O | Active | >25 | 3.4 | 
CN(C)CCNc1c2c(c(NCCN(C)C)c3sc(C(=O)NN)cc13)C(=O)c1ccccc1C2=O |  | >25 | >90 | 
CN(C)CCNc1c2c(c(NCCN(C)C)c3sccc13)C(=O)c1ccccc1C2=O |  | 0.6 | 2.3 | 
CNCCNc1c2c(c(NCCNC)c3c(C)csc13)C(=O)c1ccccc1C2=O |  | 2.7 | 2 | 
CN(C)CCNc1c2c(c(NCCN(C)C)c3sc(C(=O)NCCO)cc13)C(=O)c1ccccc1C2=O |  |  | >6 | 
CNCCNc1c2c(c(NCCNC)c3sccc13)C(=O)c1ccccc1C2=O | Active | 0.6 | 1.4 | Active
CNCCNc1c2c(c(NCCNC)c3[nH]ccc13)C(=O)c1ccccc1C2=O |  | 1 | 3.1 | 
Cc1csc2c(NCCN(C)C)c3c(c(NCCN(C)C)c12)C(=O)c1ccccc1C3=O |  | 8.4 | 1.8 | 
